From patent publication US20090170808A1, “ORAL AGENT FOR IMPROVING AND PROTECTING THE FUNCTION OF JOINT COMPRISING HYALURONIC ACID-PHOSPHOLIPID COMPLEXES” (priority 2005, published 2009)
Marks after values point to notes of the source that are not given here.

Tests used:
[1] = test system: papain-induced OA model in rabbit; test: GAG content in knee joint cartilage, papain-induced OA model in rabbit (azure A method); assay type: in vivo; set-up: unit not given here; conditions: n = 6, x ± s
Experimental: (§1) 30 rabbits were randomly divided into five groups, i.e., normal control group; normal saline (NS) injection group; hyaluronic acid (HA) oral administration group; hyaluronic acid (HA) injection group; and hyaluronic acid-phospholipid complex (HA-PL, the complex of Preparation Example 2) oral administration group.
(§2) Using the papain-induced OA model in rabbit, the latter four groups of rabbits received injection of 0.1 ml of a papain solution (1.8 mg papain and 50 mg cysteine hydrochloride in 1 ml normal saline, sterile filtered through a 0.22 μm filter membrane) into the right knee articular cavity. A second injection was performed 3 days later.
Starting on Day 7 post-modeling, the rabbits were dosed. […] For oral administration, the respective agent was given intragastrically every day, at a dosage 40 mg/kg body weight, calculated as hyaluronic acid, in a volume of 1 ml/100 g body weight, for 2 weeks.
(§3) After completion of the administration, synovial fluid was aspirated, and the rabbits were sacrificed. […] The total amount of GAG in the cartilage was determined by the azure A method, and the level of HA in the synovial fluid was determined using an HA RIA kit.
The content of GAG in samples from each group was expressed as the amount contained in every 1 mg wet weight of the cartilage ( x±s), and was analyzed by t-test for significance test.

[2] = test system: papain-induced OA model in rabbit; test: HA content in knee joint synovial fluid, papain-induced OA model in rabbit (HA RIA kit); assay type: in vivo; conditions: n = 6, x ± s
Experimental: as §1, §2
Starting on Day 7 post-modeling, the rabbits were dosed. For administration by injection into joint cavity, a injection volume of 0.3 ml, and a hyaluronic acid concentration of 10 mg/ml were used, once every five days for a total of 3 injections during the test. For oral administration, the respective agent was given intragastrically every day, at a dosage 40 mg/kg body weight, calculated as hyaluronic acid, in a volume of 1 ml/100 g body weight, for 2 weeks.
as §3

[3] = injection into joint cavity, 0.3 ml of 10 mg/ml, once every five days, 3 injections
[4] = oral (intragastric) daily, 40 mg/kg calculated as hyaluronic acid, 2 weeks

hyaluronic acid [HA]
GAG Content in knee joint cartilages [1, 3]: 29.9 ± 4.4^1),2) ng · ml^−1 | GAG Content in knee joint cartilages [1, 4]: 23.3 ± 4.2 | HA content in knee joint synovial fluid [2, 3]: 4.64 ± 0.51^1) mg · ml^−1 | HA content in knee joint synovial fluid [2, 4]: 4.65 ± 0.54^1) mg · ml^−1
